Test results reported in patent publication US12274775B2, “Fatty acid esters as anti-Malassezia agents” (SYMRISE AG, priority 2019, dated 2025).
≈ marks a conversion by molar mass, not a printed value. Like-named read-outs stand apart in the source and are kept apart here.

Legend:
M. restricta CBS 7877 = experiment: Ester cleavage by Malassezia cells, GC quantification; format: cell-based; conditions: 32° C.
Experimental: (§1) These two species are the most frequently detected ones on human scalp and skin and their hydrolytic/lipolytic activities on fatty acid esters has not yet been investigated before.
(§2) Malassezia strains were cultivated on selective agar for pathogenic fungi (Merck) and overlaid with a thin layer of cold-sterilized olive oil. After 3 to 5 days, fungal cells were harvested and resuspended in the respective test substance. Cell numbers were determined using a Neubauer counting chamber (cf. Table 12). Sterile Petri dishes (diameter: 3 cm) were prepared containing selective agar for pathogenic fungi, overlaid with 100 μl of the test suspensions and incubated at 32° C.
(§3) After defined incubation times (0, 3, 6, 12, 24, 48, and 72 h), test suspensions were removed from the agar surface by rinsing with 1 ml chloroform and stored under cool conditions in gastight tubes until analysis. Chloroform was removed by evaporation at 30° C. in the fume hood and the remaining liquid mixed with 1 ml isopropanol, transferred in Eppendorf tubes and centrifuged. The supernatant was transferred to new Eppendorf tubes.
(§4) In order to analytically quantify esters and free fatty acid resulting from cleavage by Malassezia enzymes, gas chromatography was used.
(§5) For quantification (range 0.1-10 wt %) a multilevel calibration method with internal standard (ISTD, docosane [C22]; 500 mg in MtBE) was used. An equal amount of corresponding acid, ester and possible side products [0.2-50 mg/10 mL] were mixed with ISTD, diluted to an appropriate concentration and 1 μL [split1:50] was directly used for GC-analysis with the following conditions: GC Agilent 6890 with a 20 m ZB-Wax column [0.20 mm×0.20 μm], injector temperature of 250° C., detector temperature of 275° C., flow gas of 1.3 mL/min hydrogen [constant]. For temperature profile 60° C. to 240° C. with a heating rate of 9° C./min was used.

M. globosa CBS 7705 = experiment: as above; format: cell-based; conditions: 32° C.
Experimental: as §1, §2, §3, §4, §5

[1] = Ester cleavage assays without Malassezia cells; format: physicochemical; conditions: until the end of the experiment after 72 hours
Experimental: as §2, §3, §4
For quantification (range 0.1-10 wt %) a multilevel calibration method with internal standard (ISTD, docosane [C22]; 500 mg in MtBE) was used. […]

M. pachydermatis = experiment: Agar dilution test on mDixon agar, minimal inhibitory concentration (MIC); format: cell-based; conditions: Malassezia pachydermatis, agar dilution, pH 5.5, 32° C., up to 14 days, read-out: Minimal inhibitory concentration (MIC)
Experimental: (§6) The fatty acid esters and their mixtures were tested for growth inhibition against Malassezia. The following reference strains were included:
(§7) Tests were performed on solid media using agar dilution tests. Stock solutions of test substances were prepared in mDixon-Agar (cf. Table 2). Lower test concentrations were obtained by diluting stock solutions with fresh agar.
(§8) Preparation of liquid agar was carried out in temperated water bath. Required amounts of test substances were weighed in 130 ml of Dixon Agar and mixed with fresh Dixon-Agar to reach desired concentrations of test substances. Agar solutions with test substances were then poured into 24 well-plates. The pH value in all assays was maintained at 5.5. Preparation of test substances was done on weight per volume base. All results are expressed in parts per million (1 ppm=0.0001%).
(§9) Briefly, Malassezia strains were cultivated on selective agar for pathogenic fungi (Merck) and overlaid with a thin layer of cold-sterilized olive oil. […] Incubation was carried out at 32° C. over a maximal duration of 14 days with regular inspection and documentation of growth status. Minimal inhibitory concentrations (MICs) were determined as the lowest concentrations of test compound without visible growth. Each experiment was repeated to confirm results.

M. furfur = experiment: as above; format: cell-based; conditions: Malassezia furfur, agar dilution, pH 5.5, 32° C., up to 14 days, read-out: Minimal inhibitory concentration (MIC)
Experimental: as §6, §7, §8, §9

M. globosa = experiment: as above; format: cell-based; conditions: Malassezia globosa, agar dilution, pH 5.5, 32° C., up to 14 days, read-out: Minimal inhibitory concentration (MIC)
Experimental: as §6, §7, §8, §9

M. sympodialis = experiment: as above; format: cell-based; conditions: 336 h, up to 14 days, read-out: Minimal inhibitory concentration (MIC)
Experimental: as §6, §7, §8, §9

M. restricta = experiment: as above; format: cell-based; conditions: 336 h; M. restricta CBS 7877; agar dilution, pH 5.5, 32° C., up to 14 days; read-out: Minimal inhibitory concentration (MIC)
Experimental: as §6, §7, §8, §9

[2] = M. restricta CBS 7877, after 6 hours
[3] = M. restricta CBS 7877, after 12 hours
[4] = M. globosa CBS 7705, after 6 hours
[5] = M. globosa CBS 7705, after 12 hours
[6] = CBS1879, 336 h, M. pachydermatis CBS 1879
[7] = CBS1878, 336 h, M. furfur CBS 1878
[8] = CBS7019, 336 h, M. furfur CBS 7019
[9] = CBS7705, 336 h, M. globosa CBS 7705
[10] = CBS7966, 336 h, M. globosa CBS 7966
[11] = pH 5.5, M. sympodialis ATCC 42132, pH 5.5, 32° C.
[12] = pH 5.5, M. sympodialis CBS 7222, pH 5.5, 32° C.
[13] = pH 5.5, M. sympodialis CBS 7979, pH 5.5, 32° C.
[14] = pH 5.5, M. sympodialis DSM 6171, pH 5.5, 32° C.

SMILES	ester cleaved (M. restricta CBS 7877; [2])	ester cleaved (M. restricta CBS 7877; [3])	ester cleaved (M. globosa CBS 7705; [4])	ester cleaved (M. globosa CBS 7705; [5])	free fatty acid detected in assays without Malassezia cells [1]	MIC (M. pachydermatis; 336 h, M. pachydermatis 1892)	MIC (M. pachydermatis; [6])	MIC (M. furfur; [7])	MIC (M. furfur; [8])	MIC (M. globosa; 336 h, M. globosa PM1)	MIC (M. globosa; [9])	MIC (M. globosa; [10])	MIC (M. sympodialis; [11])	MIC (M. sympodialis; [12])	MIC (M. sympodialis; [13])	MIC (M. sympodialis; [14])	MIC (M. restricta)
C=CCCCCCCCCC(=O)OCCCO [3-Hydroxypropyl undecylenoate]	56%	96%	95%	99.5%	no undecylenic acid was detected	1000 µg/mL (≈ 4.13 mM)	2000 µg/mL (≈ 8.25 mM)	8000 µg/mL (≈ 33 mM)	8000 µg/mL (≈ 33 mM)	2000 µg/mL (≈ 8.25 mM)	1000 µg/mL (≈ 4.13 mM)	2000 µg/mL (≈ 8.25 mM)	2000 µg/mL (≈ 8.25 mM)	4000 µg/mL (≈ 16.5 mM)	1000 µg/mL (≈ 4.13 mM)	2000 µg/mL (≈ 8.25 mM)	1000 µg/mL (≈ 4.13 mM)
CCCCCCCC(=O)OCCCO [3-Hydroxypropyl caprylate]	21%	65%	75%	90%	no caprylic acid was detected	500 µg/mL (≈ 2.47 mM)	330 µg/mL (≈ 1.63 mM)	2000 µg/mL (≈ 9.89 mM)	2000 µg/mL (≈ 9.89 mM)	500 µg/mL (≈ 2.47 mM)	1000 µg/mL (≈ 4.94 mM)	1000 µg/mL (≈ 4.94 mM)	1000 µg/mL (≈ 4.94 mM)	1000 µg/mL (≈ 4.94 mM)	2000 µg/mL (≈ 9.89 mM)	2000 µg/mL (≈ 9.89 mM)	1000 µg/mL (≈ 4.94 mM)
